In PMC8110993, “Structure and antimicrobial activity of NCR169, a nodule-specific cysteine-rich peptide of Medicago truncatula” (Scientific Reports, 2021):
Like-named read-outs stand apart in the source and are kept apart here. Where a SMILES comes first, the peptide text is derived from it. Bridges are numbered along the chain shown (N, C = ends). Where no end group is shown, it is not given here.

Columns and labels:
[1] = Liposome sedimentation (binding) assay
Description: (§1) Figure 3 NCR169 binds to the bacterial phospholipid. (A) Circular dichroism (CD) spectra of NCR169 peptides (NCR169-ox1 and -ox2). NCR169 peptides (20 μM) were dissolved in the following solvents: water (No additives), 2 mM DMPC liposomes, 2 mM DMPG liposomes or 30% 2,2,2-trifluoroethanol (TFE). (B) The results of liposome binding assays. The NCR169 peptide (20 μM) was incubated with buffer (No lipid), 2 mM DMPC liposomes, or 2 mM DMPG liposomes. After incubation at room temperature for 30 min, the mixture was ultra-centrifuged at 200,000×g. The supernatant and pellet fractions were analyzed by Tricine-SDS-PAGE. The no lipid sample before ultra-centrifugation was used as the input.
(§2) The phospholipids DMPC and DMPG were purchased from Avanti Polar Lipids (Alabaster, AL, USA). An appropriate amount of phospholipid was dissolved in chloroform and dried under vacuum for 1 h. The lipid film was suspended in water, vortexed, and sonicated for 30 min to form the liposomes.
(§3) The assay was carried out as described previously. Briefly, equal volumes of NCR169 peptide (20 μM) and liposomes (2 mM) were mixed in assay buffer (20 mM HEPES, 150 mM NaCl, pH 7.0) and incubated for 30 min at room temperature, followed by ultracentrifugation at 200,000×g for 15 min at 20 °C. After centrifugation, the supernatant was collected, and the pellet was dissolved in the same volume of assay buffer containing 0.2% Triton X-100. The supernatant and pellet fractions were subjected to Tricine-SDS-PAGE, and peptides were detected by Coomassie Brilliant Blue staining.
Supplementary Figure S11. NCR 169 M binds to the bacterial phospholipid. (A) Circular dichroism (CD) spectra of NCR169M (20 μM) in water (No additive), 2 mM dimyristoylphosphatidylcholine (DMPC) liposomes, 2 mM dimyristoylphosphatidylglycerol (DMPG) liposomes or 30% 2,2,2-trifluoroethanol (TFE). (B) The result of liposome binding assay. NCR169M (20 μM) was incubated with buffer (No lipid),2 mM DMPC liposomes, or 2 mM DMPG liposomes . After incubation at room temperature for 30 min, the mixture was ultra-centrifuged at 200,000 × g. The supernatant and pellet fractions were analyzed by Tricine-SDS-PAGE. The no lipidsample before ultra-centrifugation was used as the input.
(also on this page, place not known: [θ] (103 deg cm2 dmol-1) markerkDa input No lipid sup ppt sup ppt sup ppt NCR169M lipid), DMPC 2 DMPG liposomes. lipid sample)
(1 picture or pasted object on this page, not shown here)
Supplementary Figure S12. The results of liposome binding assays. (A) NCR169-derived peptide (10 μM) was incubated with buffer (No lipid), 1 mM DMPC liposomes, 1 mM DMPG liposomes. After incubation at room temperature for 30 min, the mixture was ultra-centrifuged at 200,000 × g. The supernatant and pellet fractions were analyzed by Tricine-SDS-PAGE. The no lipid sample before ultra-centrifugation was used as the input. Arrows indicate weak bands. (B) […]

Escherichia coli K-12 = assay type: cell-based; settings: for IC100: E. coli K-12, drop plate method, 2 h treatment at room temperature, 5 mM HEPES-KOH pH 7.0
Description: (§4) Antimicrobial tests were performed using the drop plate method[12],[47]. Bacterial strains in the logarithmic phase (OD600 = 0.5–0.8) were diluted with 5 mM HEPES–KOH (pH 7.0) to a bacterial culture value of 1 × 10^6 CFU/mL. At OD600 = 0.1, the concentrations of S. meliloti and E. coli K-12 cells were 6.4 × 10^6 CFU/mL and 5.2 × 10^7 CFU/mL, respectively. Equal volumes of bacteria (S. meliloti or E. coli K-12) and NCR169 peptide or PMB were mixed and incubated at room temperature for 2 h. For antimicrobial tests against S. meliloti, 10 μL of each serially diluted mixture was spotted on MHB plates with 2.5 mM MgCl2, and 2.5 mM CaCl2, followed by incubation at 30 °C for 40 h. For antimicrobial tests against E. coli K-12, 10 μL of each mixture was spotted on Mueller Hinton Broth (MHB; MilliporeSigma, Burlington, MA, USA) plates followed by incubation at 30 °C for 13 h.
(§5) To estimate survival rate, the peptide-treated bacterial mixtures were serially diluted with the buffer before spotting on the plate. Bacterial survival rates were calculated using the colony numbers of each bacterial strain with or without peptide treatment. All experiments were repeated at least four times.
(§6) Supplementary Table S2. Antimicrobial activities of NCR169 peptides against E. coliK-12 and S. meliloti.
(§7) Peptide IC50 (μM)* IC100 (μM)
(§8) E. coli K-12 S. meliloti E. coli K-12 S. meliloti
(§9) IC50: 50% inhibitory concentration (Calculated using “Dose-response curve” fitting)

Sinorhizobium meliloti = assay type: cell-based; settings: for IC100: drop plate method, 2 h treatment at room temperature, 5 mM HEPES-KOH pH 7.0
Description: as §4, §5, §6, §7, §8, §9

[2] = Liposome sedimentation (binding) assay; settings: peptide 20 μM, 2 mM DMPC liposomes, 20 mM HEPES, 150 mM NaCl, pH 7.0, 30 min room temperature, 200,000×g, supernatant and pellet by Tricine-SDS-PAGE
Description: as §1, §2
as §3, with “After centrifugation, the supernatant was collected, and the pellet was dissolved in the same volume of assay buffer containing 0.2% Triton X-100.” left out

[3] = assay type: physicochemical
Description: To confirm it, we examined the solubility of NCR169 in various solvents, HEPES (salt-free), HEPES with salt (50 to 200 mM NaCl or KCl), and PBS. […] In other words, the disulfide bonds of NCR169 contribute to its solubility.
Supplementary Figure S3. Solubility assessment of NCR169. The same amount of NCR169 was dissolved in various solvents. After incubation at room temperature for 1 h, the solution was centrifuged at 20,000 × g and the supernatant was analyzed by Tricine-SDS-PAGE. […]

[4] = assay type: physicochemical; settings: pH 2.2
Description: We further measured the circular dichroism (CD) spectra of NCR169-ox1 and -ox2 under various pH conditions to confirm their structural stability against pH (Supplementary Fig. S4). […] Because acidic pH is preferable for amide proton detection in NMR experiments, we performed the following solution NMR study at lower pH.
CD spectra were recorded within a wavelength range of 270–195 nm using a JASCO J-820 spectropolarimeter (JASCO International Co., Ltd., Tokyo, Japan). A quartz cell with a light path length of 1 mm was used for the measurements. The sample temperature was maintained at 25 °C during the measurements.
Supplementary Figure S4. Circular dichroism (CD) spectra of NCR169-ox1 and -ox2 under
various pH conditions. The signal reflectingβ-sheet structure (218 nm) was hardly changed.

[5] = peptide 20 μM, 2 mM DMPG liposomes, 20 mM HEPES, 150 mM NaCl, pH 7.0, 30 min room temperature, 200,000×g, supernatant and pellet by Tricine-SDS-PAGE
[6] = NCR169-derived peptide 10 μM, 1 mM DMPG liposomes, 30 min room temperature, 200,000×g, Tricine-SDS-PAGE

| Compound | Binding to DMPG liposomes [1, 5] | IC100 (Escherichia coli K-12) [µM] | IC50 (Escherichia coli K-12; K-12, 2 h, pH 7) [nM] | IC50 (Sinorhizobium meliloti; 2 h, pH 7) [nM] | IC100 (Sinorhizobium meliloti; S. meliloti) [µM] | Binding to DMPC liposomes [2] | Solubility in various solvents [3] | Structural stability against pH (CD spectra) [4] | Binding to DMPG liposomes [1, 6] | Antimicrobial activity (in words) (Escherichia coli K-12; E. coli K-12, various peptide concentrations) | Antimicrobial activity (in words) (Sinorhizobium meliloti; S. meliloti, various peptide concentrations) | IC50 (Escherichia coli K-12; E. coli K-12, 1 × 10^6 CFU/mL in 5 mM HEPES-KOH pH 7.0, 2 h at room temperature, spotted on MHB plates, 30 °C 13 h, survival rate from colony numbers, dose-response curve fitting, repeated at least four times, read-out: IC50 (50% inhibitory concentration)) [nM] | IC50 (Sinorhizobium meliloti; S. meliloti, 1 × 10^6 CFU/mL in 5 mM HEPES-KOH pH 7.0, 2 h at room temperature, spotted on MHB plates with 2.5 mM MgCl2 and 2.5 mM CaCl2, 30 °C 40 h, dose-response curve fitting, repeated at least four times, read-out: IC50 (50% inhibitory concentration)) [nM] |
| --- | --- | --- | --- | --- | --- | --- | --- | --- | --- | --- | --- | --- | --- |
| CC[C@H](C)[C@@H]1NC(=O)CNC(=O)[C@@H](NC(=O)[C@H](Cc2ccc(O)cc2)NC(=O)[C@H](CCCCN)NC(=O)[C@@H](NC(=O)[C@H](Cc2c[nH]cn2)NC(=O)CNC(=O)[C@@H](NC(=O)[C@H](CC(=O)O)NC(=O)[C@H](CCC(=O)O)NC(=O)CN)[C@@H](C)CC)[C@@H](C)CC)CSSC[C@@H](C(=O)N[C@@H](Cc2ccc(O)cc2)C(=O)N[C@@H](CCCCN)C(=O)N[C@@H](CO)C(=O)N[C@@H](CCCCN)C(=O)N[C@@H](CCCCN)C(=O)N2CCC[C@H]2C(=O)N[C@@H](CC(C)C)C(=O)N[C@@H](Cc2ccccc2)C(=O)N[C@@H](CCCCN)C(=O)N[C@H](C(=O)N[C@@H](Cc2c[nH]c3ccccc23)C(=O)N[C@@H](CCCCN)C(=O)N[C@H]2CSSC[C@@H](C(=O)N[C@H](C(=O)N[C@@H](CC(C)C)C(=O)N[C@@H](Cc3c[nH]c4ccccc34)C(=O)N[C@@H](Cc3ccc(O)cc3)C(=O)N[C@@H](CCCCN)C(=O)O)C(C)C)NC(=O)[C@H](C(C)C)NC(=O)[C@H](CC(N)=O)NC(=O)[C@H](CCC(=O)O)NC(=O)[C@H](C(C)C)NC2=O)[C@@H](C)CC)NC(=O)[C@H](CC(=O)O)NC(=O)[C@H](CC(=O)O)NC(=O)[C@H](C(C)C)NC1=O [NCR169-ox1] (H-GEDIGHIKYCGIVDDCYKSKKPLFKIWKCVENVCVLWYK-OH; disulfide 10-16, 29-34) | bound to the DMPG liposomes | 16 | 410 | 6400 | 128 | Neither NCR169-ox1 nor -ox2 bound | soluble in all conditions | retained their conformations under acidic and neutral conditions |  |  |  |  |  |
| CC[C@H](C)[C@H](NC(=O)[C@H](CCCCN)NC(=O)[C@H](Cc1ccccc1)NC(=O)[C@H](CC(C)C)NC(=O)[C@@H]1CCCN1C(=O)[C@H](CCCCN)NC(=O)[C@H](CCCCN)NC(=O)[C@H](CO)NC(=O)[C@H](CCCCN)NC(=O)[C@H](Cc1ccc(O)cc1)NC(=O)CN)C(=O)N[C@@H](Cc1c[nH]c2ccccc12)C(=O)N[C@@H](CCCCN)C(=O)N[C@H]1CSSC[C@@H](C(=O)N[C@H](C(=O)N[C@@H](CC(C)C)C(=O)N[C@@H](Cc2c[nH]c3ccccc23)C(=O)N[C@@H](Cc2ccc(O)cc2)C(=O)N[C@@H](CCCCN)C(=O)O)C(C)C)NC(=O)[C@H](C(C)C)NC(=O)[C@H](CC(N)=O)NC(=O)[C@H](CCC(=O)O)NC(=O)[C@H](C(C)C)NC1=O [NCR169CL-ox] (H-GYKSKKPLFKIWKCVENVCVLWYK-OH; disulfide 14-19) |  | 0.5 | 140 | 570 | > 128 |  |  |  | bound to DMPG liposomes |  |  |  |  |
| CC[C@H](C)[C@H](NC(=O)[C@H](CCCCN)NC(=O)CN)C(=O)N[C@@H](Cc1c[nH]c2ccccc12)C(=O)N[C@@H](CCCCN)C(=O)N[C@H]1CSSC[C@@H](C(=O)N[C@H](C(=O)N[C@@H](CC(C)C)C(=O)N[C@@H](Cc2c[nH]c3ccccc23)C(=O)N[C@@H](Cc2ccc(O)cc2)C(=O)N[C@@H](CCCCN)C(=O)O)C(C)C)NC(=O)[C@H](C(C)C)NC(=O)[C@H](CC(N)=O)NC(=O)[C@H](CCC(=O)O)NC(=O)[C@H](C(C)C)NC1=O [NCR169CS-ox] (H-GKIWKCVENVCVLWYK-OH; disulfide 6-11) |  | 64 | 5600 | 45000 | > 128 |  |  |  | bound to DMPG liposomes |  |  |  |  |
| CC[C@H](C)[C@@H]1NC(=O)CNC(=O)[C@@H](NC(=O)[C@H](Cc2ccc(O)cc2)NC(=O)[C@H](CCCCN)NC(=O)[C@@H](NC(=O)[C@H](Cc2c[nH]cn2)NC(=O)CNC(=O)[C@@H](NC(=O)[C@H](CC(=O)O)NC(=O)[C@H](CCC(=O)O)NC(=O)CN)[C@@H](C)CC)[C@@H](C)CC)CSSC[C@@H](C(=O)N[C@@H](Cc2ccc(O)cc2)C(=O)O)NC(=O)[C@H](CC(=O)O)NC(=O)[C@H](CC(=O)O)NC(=O)[C@H](C(C)C)NC1=O [NCR169N-ox] (H-GEDIGHIKYCGIVDDCY-OH; disulfide 10-16) |  | > 128 |  |  | > 128 |  |  |  | did not | no antimicrobial activity | no antimicrobial activity |  |  |
| Polymyxin B [PMB, reference compound] |  | 0.031 |  |  | 0.25 |  |  |  |  |  |  | 18 | 92 |
| YKSKKPLFKIWK [NCR169M] | bound to DMPG liposomes | 0.5 | 83 | 240 | 2 |  |  |  |  |  |  |  |  |
